Active and inactive are the calls of the source.
Key:
[1] = biological target: T1, Bcl-2-related protein A1 (Mus musculus, UniProt Q07440); experiment: small-molecule antagonists of Bfl-1/BH3 interaction – biochemical, TR-FRET, mouse Bfl-1, confirmation (AID 621);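 further: TR-FRET binding of GST-Bfl-1 to FITC-labelled Bid peptide via terbium antibody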
T1 sequence (Q07440 whole entry): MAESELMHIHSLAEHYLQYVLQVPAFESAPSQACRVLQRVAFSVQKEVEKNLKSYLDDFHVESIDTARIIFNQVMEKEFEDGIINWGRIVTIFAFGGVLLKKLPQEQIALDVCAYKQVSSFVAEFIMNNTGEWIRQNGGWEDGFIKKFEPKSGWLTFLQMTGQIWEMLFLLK

[2] = biological target: T1, Bcl-2-related protein A1; experiment: Bfl-1 binding inhibitors, SAR follow-up, biochemical, fluorescence polarization (AID 1070)
[3] = biological target: Glyceraldehyde-3-phosphate dehydrogenase (Homo sapiens, UniProt P04406)
Chain of Glyceraldehyde-3-phosphate dehydrogenase (P04406 whole entry): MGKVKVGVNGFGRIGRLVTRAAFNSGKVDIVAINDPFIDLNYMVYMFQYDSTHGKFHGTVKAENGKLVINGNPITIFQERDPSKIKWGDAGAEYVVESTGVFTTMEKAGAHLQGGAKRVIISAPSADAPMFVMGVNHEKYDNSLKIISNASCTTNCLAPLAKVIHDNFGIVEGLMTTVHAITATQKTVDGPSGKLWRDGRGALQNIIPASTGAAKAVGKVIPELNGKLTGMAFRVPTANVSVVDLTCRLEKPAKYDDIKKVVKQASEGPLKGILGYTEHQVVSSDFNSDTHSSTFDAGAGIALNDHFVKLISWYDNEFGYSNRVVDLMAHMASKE

[4] = biological target: Protein-tyrosine kinase 2-beta (Homo sapiens, UniProt Q14289);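 further: potency of inhibitors of PYK2 kinase phosphorylation of poly-GT substrate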
Chain of Protein-tyrosine kinase 2-beta (Q14289 whole entry): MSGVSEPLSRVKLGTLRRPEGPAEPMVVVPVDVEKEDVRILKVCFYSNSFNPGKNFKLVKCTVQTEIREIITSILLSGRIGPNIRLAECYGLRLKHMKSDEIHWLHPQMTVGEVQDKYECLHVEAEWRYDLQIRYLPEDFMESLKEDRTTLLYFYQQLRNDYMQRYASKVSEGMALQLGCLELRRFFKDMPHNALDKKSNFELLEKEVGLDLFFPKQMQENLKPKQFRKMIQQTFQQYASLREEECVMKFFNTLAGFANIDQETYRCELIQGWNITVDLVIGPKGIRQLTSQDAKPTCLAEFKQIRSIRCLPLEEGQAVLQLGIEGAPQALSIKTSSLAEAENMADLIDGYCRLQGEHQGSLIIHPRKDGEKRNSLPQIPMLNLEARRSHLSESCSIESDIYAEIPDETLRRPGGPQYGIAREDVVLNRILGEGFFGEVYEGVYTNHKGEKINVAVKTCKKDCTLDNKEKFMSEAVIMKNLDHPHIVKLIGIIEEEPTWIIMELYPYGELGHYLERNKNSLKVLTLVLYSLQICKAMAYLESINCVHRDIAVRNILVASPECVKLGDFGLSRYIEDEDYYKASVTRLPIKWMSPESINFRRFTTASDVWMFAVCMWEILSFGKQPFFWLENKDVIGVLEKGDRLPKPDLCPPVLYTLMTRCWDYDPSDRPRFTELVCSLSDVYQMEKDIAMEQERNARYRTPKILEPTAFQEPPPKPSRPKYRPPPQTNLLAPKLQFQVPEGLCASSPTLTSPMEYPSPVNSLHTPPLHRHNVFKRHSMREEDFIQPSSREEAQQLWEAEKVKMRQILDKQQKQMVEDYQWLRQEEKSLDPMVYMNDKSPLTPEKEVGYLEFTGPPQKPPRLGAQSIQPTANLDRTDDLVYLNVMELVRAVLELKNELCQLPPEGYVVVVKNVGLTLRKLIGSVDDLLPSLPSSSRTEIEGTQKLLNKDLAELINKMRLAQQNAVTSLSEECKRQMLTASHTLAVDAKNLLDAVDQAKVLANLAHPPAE

[5] = biological target: Voltage-gated inwardly rectifying potassium channel KCNH2 (Homo sapiens, UniProt Q12809); experiment: concentration-dependent hERG rescue from blockers – cell-based, thallium flux, dose response (AID 2121); assay type: ADME
Chain of Voltage-gated inwardly rectifying potassium channel KCNH2 (Q12809 whole entry): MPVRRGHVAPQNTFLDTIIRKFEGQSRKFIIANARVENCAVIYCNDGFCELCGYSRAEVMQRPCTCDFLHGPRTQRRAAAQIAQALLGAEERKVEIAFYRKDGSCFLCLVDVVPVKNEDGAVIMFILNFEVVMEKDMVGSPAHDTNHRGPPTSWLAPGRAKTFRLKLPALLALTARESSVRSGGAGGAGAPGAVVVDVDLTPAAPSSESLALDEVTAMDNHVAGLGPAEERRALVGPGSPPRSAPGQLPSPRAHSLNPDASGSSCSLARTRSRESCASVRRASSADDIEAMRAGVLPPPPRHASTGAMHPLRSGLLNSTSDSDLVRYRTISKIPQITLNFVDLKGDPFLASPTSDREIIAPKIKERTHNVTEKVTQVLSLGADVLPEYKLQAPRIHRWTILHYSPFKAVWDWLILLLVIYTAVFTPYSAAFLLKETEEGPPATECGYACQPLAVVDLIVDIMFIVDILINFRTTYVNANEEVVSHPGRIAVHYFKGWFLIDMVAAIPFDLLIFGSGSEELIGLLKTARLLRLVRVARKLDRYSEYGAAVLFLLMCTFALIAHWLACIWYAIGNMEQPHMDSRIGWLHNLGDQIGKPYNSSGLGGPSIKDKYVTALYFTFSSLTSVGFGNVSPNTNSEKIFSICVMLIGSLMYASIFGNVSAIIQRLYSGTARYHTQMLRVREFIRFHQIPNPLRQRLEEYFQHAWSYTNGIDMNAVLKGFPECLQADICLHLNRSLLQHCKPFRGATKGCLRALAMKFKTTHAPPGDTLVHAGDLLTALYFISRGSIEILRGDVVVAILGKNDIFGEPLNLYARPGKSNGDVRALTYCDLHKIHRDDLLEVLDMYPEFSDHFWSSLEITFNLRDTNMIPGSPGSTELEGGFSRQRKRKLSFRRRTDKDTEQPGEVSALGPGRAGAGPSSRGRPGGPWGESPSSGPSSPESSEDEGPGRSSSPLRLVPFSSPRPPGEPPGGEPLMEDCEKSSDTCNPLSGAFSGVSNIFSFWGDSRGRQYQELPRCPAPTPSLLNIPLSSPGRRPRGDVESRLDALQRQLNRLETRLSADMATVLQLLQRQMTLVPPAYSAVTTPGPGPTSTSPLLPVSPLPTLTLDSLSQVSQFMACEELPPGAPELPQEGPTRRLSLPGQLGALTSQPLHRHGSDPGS

[6] = biological target: T2, Protein RecA (Mycobacterium tuberculosis, UniProt P9WHJ3); experiment: Fluorescence Cell-Free Homogeneous Dose Retest to Identify Inhibitors of RecA-Intein Splicing Activity. [Related pubchem assays (depositor defined):AID2097, AID2223, AID489010, AID492950]; assay type: functional
T2 sequence (P9WHJ3 whole entry): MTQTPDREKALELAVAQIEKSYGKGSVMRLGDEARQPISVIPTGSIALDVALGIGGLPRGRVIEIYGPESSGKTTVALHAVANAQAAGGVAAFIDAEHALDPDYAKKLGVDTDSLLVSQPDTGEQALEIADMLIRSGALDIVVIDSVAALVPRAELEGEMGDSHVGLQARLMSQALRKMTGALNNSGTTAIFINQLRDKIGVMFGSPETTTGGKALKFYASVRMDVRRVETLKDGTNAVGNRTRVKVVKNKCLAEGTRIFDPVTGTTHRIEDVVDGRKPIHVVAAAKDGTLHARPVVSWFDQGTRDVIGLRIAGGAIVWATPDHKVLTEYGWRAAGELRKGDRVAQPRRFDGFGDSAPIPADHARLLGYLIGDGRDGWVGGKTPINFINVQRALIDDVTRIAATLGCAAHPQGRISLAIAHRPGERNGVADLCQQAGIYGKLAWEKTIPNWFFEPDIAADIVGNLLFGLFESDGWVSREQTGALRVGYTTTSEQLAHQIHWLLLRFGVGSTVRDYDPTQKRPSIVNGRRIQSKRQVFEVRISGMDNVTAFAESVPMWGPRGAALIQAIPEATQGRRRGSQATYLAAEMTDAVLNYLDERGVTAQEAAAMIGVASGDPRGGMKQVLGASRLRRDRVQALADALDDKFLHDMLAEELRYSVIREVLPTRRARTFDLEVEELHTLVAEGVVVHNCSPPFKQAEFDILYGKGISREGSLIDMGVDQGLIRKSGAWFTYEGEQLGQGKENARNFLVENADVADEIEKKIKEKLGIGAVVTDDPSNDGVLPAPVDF

[7] = biological target: Genome polyprotein (dengue virus type 2, UniProt P29990); experiment: flavivirus cap methylation enzyme inhibition – biochemical, confirmation dose response, primary screen (AID 588689); assay type: functional
Chain of Genome polyprotein (P29990 2492-3391 limits assumed): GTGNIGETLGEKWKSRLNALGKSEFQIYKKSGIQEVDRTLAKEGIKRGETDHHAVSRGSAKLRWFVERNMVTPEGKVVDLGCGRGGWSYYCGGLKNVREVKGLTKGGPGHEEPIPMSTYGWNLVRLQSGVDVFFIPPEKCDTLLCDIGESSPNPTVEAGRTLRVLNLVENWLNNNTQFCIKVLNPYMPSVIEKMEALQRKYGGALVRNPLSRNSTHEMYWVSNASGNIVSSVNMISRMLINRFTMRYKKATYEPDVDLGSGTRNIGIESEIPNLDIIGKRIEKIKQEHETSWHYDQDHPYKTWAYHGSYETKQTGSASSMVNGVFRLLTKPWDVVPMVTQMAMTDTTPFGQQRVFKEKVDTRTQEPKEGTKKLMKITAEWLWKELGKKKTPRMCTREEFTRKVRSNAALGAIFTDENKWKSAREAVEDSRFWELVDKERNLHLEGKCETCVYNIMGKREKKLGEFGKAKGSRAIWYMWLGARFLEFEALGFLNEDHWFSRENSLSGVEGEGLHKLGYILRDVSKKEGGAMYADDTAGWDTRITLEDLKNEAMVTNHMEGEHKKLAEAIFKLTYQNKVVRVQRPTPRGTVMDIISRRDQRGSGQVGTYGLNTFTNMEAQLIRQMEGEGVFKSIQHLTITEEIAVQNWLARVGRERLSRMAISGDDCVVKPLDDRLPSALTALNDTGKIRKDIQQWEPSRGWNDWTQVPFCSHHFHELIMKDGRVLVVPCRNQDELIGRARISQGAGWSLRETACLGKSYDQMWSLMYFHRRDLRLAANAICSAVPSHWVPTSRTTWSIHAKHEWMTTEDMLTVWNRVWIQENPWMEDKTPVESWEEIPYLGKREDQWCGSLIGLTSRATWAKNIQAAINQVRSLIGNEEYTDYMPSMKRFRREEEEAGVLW

[8] = biological target: T3, Replicative DNA helicase DnaB (Mycobacterium tuberculosis, UniProt P9WMR3); experiment: DnaB intein splicing inhibitors, dose response, biochemical, cell-free fluorescence (AID 449749); assay type: functional
T3 sequence (P9WMR3 whole entry): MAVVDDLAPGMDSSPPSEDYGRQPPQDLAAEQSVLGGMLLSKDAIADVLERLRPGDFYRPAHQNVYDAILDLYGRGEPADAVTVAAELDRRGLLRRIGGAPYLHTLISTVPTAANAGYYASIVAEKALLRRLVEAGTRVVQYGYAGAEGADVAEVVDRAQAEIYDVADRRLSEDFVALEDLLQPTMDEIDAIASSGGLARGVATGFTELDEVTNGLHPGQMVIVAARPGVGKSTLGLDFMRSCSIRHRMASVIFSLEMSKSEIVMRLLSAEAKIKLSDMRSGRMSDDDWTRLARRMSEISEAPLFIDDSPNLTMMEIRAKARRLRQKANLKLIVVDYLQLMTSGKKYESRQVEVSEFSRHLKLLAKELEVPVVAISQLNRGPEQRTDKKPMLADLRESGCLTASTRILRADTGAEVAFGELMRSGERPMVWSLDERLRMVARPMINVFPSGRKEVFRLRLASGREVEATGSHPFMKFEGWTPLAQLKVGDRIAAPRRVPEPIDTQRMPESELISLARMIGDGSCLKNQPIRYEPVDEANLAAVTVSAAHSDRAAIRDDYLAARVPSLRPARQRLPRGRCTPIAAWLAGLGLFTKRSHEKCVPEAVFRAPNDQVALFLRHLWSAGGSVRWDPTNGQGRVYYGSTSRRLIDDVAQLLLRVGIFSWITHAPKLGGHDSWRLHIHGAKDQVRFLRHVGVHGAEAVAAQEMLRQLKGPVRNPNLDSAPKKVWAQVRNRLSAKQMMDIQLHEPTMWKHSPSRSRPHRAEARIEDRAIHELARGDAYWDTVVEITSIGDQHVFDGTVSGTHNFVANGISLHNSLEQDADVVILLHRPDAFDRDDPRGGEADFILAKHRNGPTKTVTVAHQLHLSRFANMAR

[9] = biological target: T4, Epstein-Barr nuclear antigen 1 (Epstein-Barr virus (strain B95-8) (HHV-4) (Human herpesvirus 4), UniProt P03211); experiment: inhibition of EBV nuclear antigen 1 DNA binding – biochemical, fluorescence polarization, 1536-well, dose response (AID 2381); parameters: species or system human gammaherpesvirus 4;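 further: fluorescence polarization of a Cy5 DNA probe bound by EBNA-1 protein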
T4 sequence (P03211 whole entry): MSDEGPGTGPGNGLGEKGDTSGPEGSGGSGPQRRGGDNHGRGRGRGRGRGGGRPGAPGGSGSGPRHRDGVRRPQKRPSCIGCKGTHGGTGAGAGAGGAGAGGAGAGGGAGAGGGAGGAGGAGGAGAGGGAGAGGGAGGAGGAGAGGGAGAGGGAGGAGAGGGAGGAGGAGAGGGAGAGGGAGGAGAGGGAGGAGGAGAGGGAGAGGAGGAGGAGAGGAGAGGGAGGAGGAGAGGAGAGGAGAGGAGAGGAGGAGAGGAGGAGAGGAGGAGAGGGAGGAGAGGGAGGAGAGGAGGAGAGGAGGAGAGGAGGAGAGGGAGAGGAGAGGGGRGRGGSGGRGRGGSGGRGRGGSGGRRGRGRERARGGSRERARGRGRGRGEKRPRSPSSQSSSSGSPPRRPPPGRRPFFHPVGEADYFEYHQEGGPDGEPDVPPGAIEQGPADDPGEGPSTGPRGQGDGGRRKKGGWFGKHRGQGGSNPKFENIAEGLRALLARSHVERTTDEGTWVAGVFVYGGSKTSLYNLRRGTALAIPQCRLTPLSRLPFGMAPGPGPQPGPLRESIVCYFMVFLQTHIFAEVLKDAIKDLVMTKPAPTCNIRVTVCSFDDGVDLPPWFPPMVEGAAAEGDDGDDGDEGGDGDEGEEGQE

[10] = biological target: T5, Lytic switch protein BZLF1 (Epstein-Barr virus (strain B95-8) (HHV-4) (Human herpesvirus 4), UniProt P03206); experiment: inhibition of BZLF1 ZTA DNA binding – biochemical, fluorescence polarization, Epstein-Barr virus, 1536-well, counter-screen for EBNA-1 inhibitor project, dose response (AID 2377); parameters: species or system human gammaherpesvirus 4;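 further: fluorescence polarization of Cy5-labelled ZRE DNA probe bound by purified Zta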
T5 sequence (P03206 whole entry): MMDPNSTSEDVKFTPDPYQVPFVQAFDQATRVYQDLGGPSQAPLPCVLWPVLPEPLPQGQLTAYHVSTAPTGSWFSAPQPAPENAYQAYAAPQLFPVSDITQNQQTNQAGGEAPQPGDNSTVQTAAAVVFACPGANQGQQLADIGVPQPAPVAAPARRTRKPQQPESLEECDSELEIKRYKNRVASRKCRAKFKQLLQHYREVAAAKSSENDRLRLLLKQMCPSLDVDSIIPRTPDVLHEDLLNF

SMILES: O=C1C(Cl)=C(N2CCN(CCO)CC2)C(=O)N1c1ccc(Cl)c(Cl)c1
- IC50 [1]: 0.59 µM (active)
- IC50 [2]: 0.556 µM (active)
- IC50 [3]: > 100 µM (not active)

SMILES: O=c1c(/C=N/O)c(Nc2ccccc2)nc2ccccn12
- IC50 [4]: > 69.5 µM (not active)

SMILES: CC1CN(C(=S)NC(=O)c2ccc(Cl)cc2)CC(C)O1 (stereo not drawn)
- EC50 [5]: 5.66 µM (active)

SMILES: O=C(COc1ccc(Cl)cc1Cl)NC(=S)N1CCCc2ccccc21
- EC50 [5]: 4.06 µM (active)

SMILES: O=C1C(Cl)=C(N2CCOCC2)C(=O)N1c1ccccc1Cl
- IC50 [1]: 5.83 µM (active)
- EC50 [6]: 2.09 µM (active)
- IC50 [2]: > 100 µM (not active)
- IC50 [3]: > 10 µM (inconclusive)
- IC50 [7]: 23.3 µM (active)
- AC50 [8]: 5.28 µM (active)

SMILES: Cc1ccccc1N1CCN(C2=C(Cl)C(=O)N(c3ccc(Cl)c(Cl)c3)C2=O)CC1
- IC50 [1]: > 100 µM (not active)
- IC50 [2]: > 100 µM (not active)
- IC50 [3]: > 100 µM (not active)

SMILES: COc1ccc(/C=C2/NC(=O)N(CC(=O)Nc3cccc(C)c3)C2=O)cc1O
- IC50 [9]: 9.14 µM (active)
- IC50 [10]: > 111 µM (not active)

SMILES: CCOC(=O)Cc1csc(NC(=S)NC(=O)C(C)(C)C)n1
- EC50 [5]: 2.51 µM (active)

— ChEMBL document CHEMBL1201862, “PubChem BioAssay data set” (2004)
